Data on 28 molecules can be found in patent US7135466B2 (Kirin Beer Kabushiki Kaisha, priority 1999, dated 2006).

In one test the target is T1, PDGF-Ra (Homo sapiens, UniProt P16234).
T1 construct: host or cells: G-292 human osteosarcoma cells
The experiment in a line: Inhibitory activity against PDGF-Ra phosphorylation by PDGF-AA stimulation using G292. It counts as cell-based. The settings on record: for pIC50: > means inhibition at indicated concentration not more than 50%, < and << not less than 50%, read-out: PDGF (E) IC50; for inhibition at 0.1 µM: G292, figure within parentheses in >100( ), at 100 nM, read-out: PDGF (E) inhibition (%) at 100 nM. In short, it runs like this:
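G-292 human osteosarcoma cells in 0.1% FBS medium overnight, given compound for 1 hr at 37° C, then PDGF-AA 50 ng/ml for 5 min. Lysates captured on anti-phosphotyrosine (PY-20) plates and probed with anti-PDGF-Ra plus HRP secondary; absorbance at 450 nm.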

The target in the next test is T2, c-kit (Homo sapiens, UniProt P10721).
T2 construct: MO7e (human megakaryocytic leukemia cell line) which had been arrested for 20 hr; endogenous in cells; host or cells: MO7e human megakaryocytic leukemia cell line
T2 sequence (P10721 26-976): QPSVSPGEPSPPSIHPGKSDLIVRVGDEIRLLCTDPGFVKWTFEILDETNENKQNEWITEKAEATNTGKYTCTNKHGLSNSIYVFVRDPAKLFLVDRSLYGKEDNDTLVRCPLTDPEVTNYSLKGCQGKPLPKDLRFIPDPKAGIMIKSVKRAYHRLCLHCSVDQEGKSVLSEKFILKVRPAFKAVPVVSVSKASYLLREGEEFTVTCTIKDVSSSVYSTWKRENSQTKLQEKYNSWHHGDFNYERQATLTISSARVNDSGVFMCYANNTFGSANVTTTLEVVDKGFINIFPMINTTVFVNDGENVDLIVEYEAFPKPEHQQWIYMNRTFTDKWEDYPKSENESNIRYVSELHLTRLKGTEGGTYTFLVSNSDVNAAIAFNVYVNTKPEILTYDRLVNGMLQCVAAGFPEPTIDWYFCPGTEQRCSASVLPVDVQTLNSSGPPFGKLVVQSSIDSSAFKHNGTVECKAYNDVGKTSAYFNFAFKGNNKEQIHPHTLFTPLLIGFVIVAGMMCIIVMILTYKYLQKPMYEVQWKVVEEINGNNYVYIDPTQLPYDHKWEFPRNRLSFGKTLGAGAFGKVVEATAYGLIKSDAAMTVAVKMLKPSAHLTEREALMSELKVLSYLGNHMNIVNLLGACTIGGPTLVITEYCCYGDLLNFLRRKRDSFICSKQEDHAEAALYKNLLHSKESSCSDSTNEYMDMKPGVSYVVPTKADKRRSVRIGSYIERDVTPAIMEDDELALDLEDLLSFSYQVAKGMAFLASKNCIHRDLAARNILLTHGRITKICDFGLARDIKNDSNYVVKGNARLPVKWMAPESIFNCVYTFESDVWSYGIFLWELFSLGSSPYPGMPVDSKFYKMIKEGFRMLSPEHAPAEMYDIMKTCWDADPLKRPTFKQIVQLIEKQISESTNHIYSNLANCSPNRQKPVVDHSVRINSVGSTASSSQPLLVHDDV
Kind of test: Inhibitory activity against c-kit autophosphorylation (MO7e cells, h-SCF). The following applies: for pIC50: MO7e cells, 50 ng/ml h-SCF, read-out: c-kit IC50; for inhibition at 1 µM: Mo7e, figure within parentheses in −( ) or >1000( ), at 1000 nM. Type of test: cell-based. In short, it runs like this:
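MO7e human megakaryocytic leukemia cells, arrested 20 hr, treated with compound 1 hr, then stimulated with 50 ng/ml h-SCF for 5 min and lysed. Lysates captured on immobilized anti-phosphotyrosine antibody, detected with anti-c-kit primary and HRP secondary antibody; absorbance at 450 nm.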

Each structure is given as a SMILES string. pIC50: −log10 of the molar value. A value given as a limit tells only on which side of the number the result lay.

T1 sequence (P16234 24-1089): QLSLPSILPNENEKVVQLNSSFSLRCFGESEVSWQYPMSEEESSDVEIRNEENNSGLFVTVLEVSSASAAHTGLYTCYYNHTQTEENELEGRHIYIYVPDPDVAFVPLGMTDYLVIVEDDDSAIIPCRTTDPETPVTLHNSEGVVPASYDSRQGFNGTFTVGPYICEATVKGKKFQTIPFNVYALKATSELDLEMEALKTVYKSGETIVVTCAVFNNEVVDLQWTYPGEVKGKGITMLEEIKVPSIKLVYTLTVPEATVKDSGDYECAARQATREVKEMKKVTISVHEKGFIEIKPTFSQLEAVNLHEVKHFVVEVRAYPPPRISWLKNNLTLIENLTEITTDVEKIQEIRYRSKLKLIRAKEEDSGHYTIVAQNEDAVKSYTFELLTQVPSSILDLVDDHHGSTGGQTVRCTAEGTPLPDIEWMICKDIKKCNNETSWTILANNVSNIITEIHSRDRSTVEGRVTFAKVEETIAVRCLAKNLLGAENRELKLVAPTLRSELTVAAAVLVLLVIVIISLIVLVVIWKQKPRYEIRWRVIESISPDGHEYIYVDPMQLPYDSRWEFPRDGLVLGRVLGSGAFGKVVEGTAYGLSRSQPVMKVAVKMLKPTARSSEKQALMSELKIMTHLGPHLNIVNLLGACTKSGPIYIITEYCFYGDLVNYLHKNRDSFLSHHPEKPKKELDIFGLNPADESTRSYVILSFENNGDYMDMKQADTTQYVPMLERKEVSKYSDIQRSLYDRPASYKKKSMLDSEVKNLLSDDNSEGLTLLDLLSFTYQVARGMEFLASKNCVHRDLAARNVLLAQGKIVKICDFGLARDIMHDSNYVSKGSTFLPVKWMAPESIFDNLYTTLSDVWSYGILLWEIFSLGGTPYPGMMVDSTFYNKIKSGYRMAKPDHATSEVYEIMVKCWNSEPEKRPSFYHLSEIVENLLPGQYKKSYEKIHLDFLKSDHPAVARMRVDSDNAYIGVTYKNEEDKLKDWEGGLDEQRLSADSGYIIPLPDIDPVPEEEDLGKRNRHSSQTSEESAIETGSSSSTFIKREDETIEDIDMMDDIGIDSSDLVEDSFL

With `COc1cc2ncnc(Oc3ccc(NC(=O)N[C@@H]4CCN(Cc5ccccc5)C4)c(Cl)c3)c2cc1OC` [Example 575, N-[(3R)-1-Benzyltetrahydro-1H-3-pyrrolyl]-N′-{2-chloro-4-[(6,7-dimethoxy-4-quinazolinyl)oxy]phenyl}urea], the results for the pIC50 on PDGF-Ra and at c-kit were 7.57 and 6.18, respectively.

On to `COc1cc2ncnc(Oc3ccc(NC(=O)N[C@H]4CCN(Cc5ccccc5)C4)c(Cl)c3)c2cc1OC` [Example 576, N-[(3S)-1-Benzyltetrahydro-1H-3-pyrrolyl]-N′-{2-chloro-4-[(6,7-dimethoxy-4-quinazolinyl)oxy]phenyl}urea], for which the values for the pIC50 at PDGF-Ra and on c-kit were 7.44 and 6.82, respectively.

Regarding `COc1cc2ncnc(Oc3ccc(NC(=O)N[C@@H]4CCN(Cc5ccccc5)C4)c([N+](=O)[O-])c3)c2cc1OC` [Example 577, N-[(3R)-1-Benzyltetrahydro-1H-3-pyrrolyl]-N′-{4-[(6,7-dimethoxy-4-quinazolinyl)oxy]-2-nitrophenyl}urea], the pIC50 at PDGF-Ra was 7.85; at c-kit it was 6.48.

Take `COc1cc2ncnc(Oc3ccc(NC(=O)N[C@H]4CCN(Cc5ccccc5)C4)c([N+](=O)[O-])c3)c2cc1OC` [Example 578, N-[(3S)-1-Benzyltetrahydro-1H-3-pyrrolyl]-N′-{4-[(6,7-dimethoxy-4-quinazolinyl)oxy]-2-nitrophenyl}urea]: the values for the pIC50 at PDGF-Ra and at c-kit were 7.74 and 6.98, respectively.

Turning to `COc1cc2nccc(Oc3ccc(NC(=O)NC4CCN(Cc5ccccc5Cl)C4)cc3)c2cc1OC` (centres unmarked) [Example 579, N-[1-(2-Chlorobenzyl)tetrahydro-1H-3-pyrrolyl]-N′-{4-[(6,7-dimethoxy-4-quinolyl)oxy]phenyl}urea], the pIC50 is 7.66 on PDGF-Ra and 6.84 on c-kit.

For `COc1cc2ncnc(Oc3ccc(NC(=O)NC4CCN(Cc5ccccc5Cl)C4)cc3)c2cc1OC` (centres unmarked) [Example 580, N-[1-(2-Chlorobenzyl)tetrahydro-1H-3-pyrrolyl]-N′-{4-[(6,7-dimethoxy-4-quinazolinyl)oxy]phenyl}urea], the values for the pIC50 at PDGF-Ra and on c-kit were 7.85 and 7.08, respectively.

Turning to `COc1cc2ncnc(Oc3ccc(NC(=O)NC4CCN(Cc5ccccc5Cl)C4)c([N+](=O)[O-])c3)c2cc1OC` (centres unmarked) [Example 581, N-[1-(2-Chlorobenzyl)tetrahydro-1H-3-pyrrolyl]-N′-{4-[(6,7-dimethoxy-4-quinazolinyl)oxy]-2-nitrophenyl}urea], the pIC50 is 7.85 at PDGF-Ra and 6.74 at c-kit.

On to `COc1cc2nccc(Oc3ccc(NC(=O)NC4CCN(Cc5ccc(C(C)(C)C)cc5)C4)cc3)c2cc1OC` (centres unmarked) [Example 582, N-{1-[4-(Tert-butyl)benzyl]tetrahydro-1H-3-pyrrolyl}-N′-{4-[(6,7-dimethoxy-4-quinolyl)oxy]phenyl}urea], for which, at PDGF-Ra, the pIC50 is below 7.00 and the inhibition at 0.1 µM was determined as 20%. For the same molecule, the inhibition at 1 µM at c-kit came out at 29%.

As for `COc1cc2ncnc(Oc3ccc(NC(=O)NC4CCN(Cc5ccc(C(C)(C)C)cc5)C4)cc3)c2cc1OC` (centres unmarked) [Example 583, N-{1-[4-(Tert-butyl)benzyl]tetrahydro-1H-3-pyrrolyl}-N′-{4-[(6,7-dimethoxy-4-quinazolinyl)oxy]phenyl}urea], on PDGF-Ra, the pIC50 was below 7.00 and the inhibition at 0.1 µM worked out at 17%. The inhibition at 1 µM at c-kit worked out at 18%.

In the case of `COc1cc2ncnc(Oc3ccc(NC(=O)NC4CCN(Cc5ccc(C(C)(C)C)cc5)C4)c([N+](=O)[O-])c3)c2cc1OC` (centres unmarked) [Example 584, N-{1-[4-(Tert-butyl)benzyl]tetrahydro-1H-3-pyrrolyl}-N′-{4-[(6,7-dimethoxy-4-quinazolinyl)oxy]-2-nitrophenyl}urea], at PDGF-Ra, the pIC50 is below 7.00 and the inhibition at 0.1 µM came to 13%. Also, the inhibition at 1 µM on c-kit stood at 13%.

With `COc1cc2ncnc(Oc3ccc(NC(=O)NC4CCN(CC5CCCCC5)C4)cc3)c2cc1OC` (centres unmarked) [Example 586, N-[1-(Cyclohexylmethyl)tetrahydro-1H-3-pyrrolyl]-N′-{4-[(6,7-dimethoxy-4-quinazolinyl)oxy]phenyl}urea], the pIC50 is 7.20 at PDGF-Ra and 6.13 at c-kit.

`COc1cc2ncnc(Oc3ccc(NC(=O)NC4CCN(CC5CCCCC5)C4)c([N+](=O)[O-])c3)c2cc1OC` (centres unmarked) [Example 587, N-[1-(Cyclohexylmethyl)tetrahydro-1H-3-pyrrolyl]-N′-{4-[(6,7-dimethoxy-4-quinazolinyl)oxy]-2-nitrophenyl}urea]: the pIC50 on PDGF-Ra was 7.17. The inhibition at 1 µM at c-kit was determined as 16%.

On to `CCN(CC)CCNC(=S)Nc1ccc(Oc2ccnc3cc(OC)c(OC)cc23)cc1` [Example 589, N-{4-[(6,7-Dimethoxy-4-quinolyl)oxy]phenyl}-N′-(2-diethylaminoethyl)thiourea], for which the figures for the pIC50 at PDGF-Ra and on c-kit were 7.55 and 6.31, respectively.

Consider `COc1cc2ncnc(Oc3ccc(NC(=O)NC4CCN(Cc5ccccc5)CC4)cc3)c2cc1OC` [Example 591, N-{4-[(6,7-Dimethoxy-4-quinazolinyl)oxy]phenyl}-N′-[4-(N-benzyl)piperidinyl]urea], for which the pIC50 is 7.48 at PDGF-Ra and 6.93 at c-kit.

For `COc1cc2nccc(Oc3ccc(NC(=O)NN4CCCCC4)cc3)c2cc1OC` [Example 592, N-{4-[(6,7-Dimethoxy-4-quinolyl)oxy]phenyl}-N′-(1-piperidinyl)urea], the pIC50 at PDGF-Ra was 7.64; on c-kit, 6.33.

For `COc1cc2nccc(Oc3ccc(NC(=O)NN4CCCCC4)c([N+](=O)[O-])c3)c2cc1OC` [Example 594, N-{4-[(6,7-Dimethoxy-4-quinolyl)oxy]-2-nitrophenyl}-N′-(1-piperidinyl)urea], on PDGF-Ra, the pIC50 is below 7.00 and the inhibition at 0.1 µM was found to be 39%. Besides, the inhibition at 1 µM on c-kit came to 10%.

Take `COc1cc(Oc2ncnc3cc(OC)c(OC)cc23)ccc1NC(=O)NN1CCCCC1` [Example 596, N-{4-[(6,7-Dimethoxy-4-quinazolinyl)oxy]-2-methoxyphenyl}-N′-(1-piperidinyl)urea]: the pIC50 is 7.20 at PDGF-Ra and 6.14 on c-kit.

Take `COc1cc2ncnc(Oc3ccc(NC(=O)NN4CCCCC4)c([N+](=O)[O-])c3)c2cc1OC` [Example 597, N-{4-[(6,7-Dimethoxy-4-quinazolinyl)oxy]-2-nitrophenyl}-N′-(1-piperidinyl)urea]: on PDGF-Ra, the pIC50 is below 7.00 and the inhibition at 0.1 µM was found to be 27%. Further, at c-kit, the inhibition at 1 µM was 8%.

Turning to `COc1cc(Oc2ccnc3cc(OC)c(OC)cc23)ccc1NC(=O)NN1CCCCC1` [Example 598, N-{4-[(6,7-Dimethoxy-4-quinolyl)oxy]-2-methoxyphenyl}-N′-(1-piperidinyl)urea], the pIC50 at PDGF-Ra was 7.72; at c-kit, 6.37.

As to `COc1cc2ncnc(Oc3ccc(NC(=O)NN4CCCCCC4)cc3)c2cc1OC` [Example 602, N-{4-[(6,7-Dimethoxy-4-quinazolinyl)oxy]phenyl}-N′-(1-homopiperidinyl)urea], the figures for the pIC50 at PDGF-Ra and on c-kit were 7.96 and 6.74, respectively.

On to `COc1cc2ncnc(Oc3ccc(NC(=O)NN4CCCCC4)cc3)c2cc1OC` [Example 603, N-{4-[(6,7-Dimethoxy-4-quinazolinyl)oxy]phenyl}-N′-(1-piperidinyl)urea], for which the results for the pIC50 on PDGF-Ra and on c-kit were below 7.00 and 6.06, respectively. Further, the inhibition at 0.1 µM on PDGF-Ra came to 42%.

For `COc1cc2nccc(Oc3ccc(NC(=O)NC4CCN(Cc5ccccc5)C4)c(C)c3C)c2cc1OC` (centres unmarked) [Example 604, N-{4-[(6,7-Dimethoxy-4-quinolyl)oxy]-2,3-dimethylphenyl}-N′-[4-(N-benzyl)piperidinyl]urea], the pIC50 is 7.14 at PDGF-Ra and 6.49 on c-kit.

Regarding `COc1cc2ncnc(Oc3ccc(NC(=O)NC4CCN(Cc5ccccc5)CC4)c([N+](=O)[O-])c3)c2cc1OC` [Example 606, N-{4-[(6,7-Dimethoxy-4-quinazolinyl)oxy]-2-nitrophenyl}-N′-[4-(N-benzyl)piperidinyl]urea], the pIC50 at PDGF-Ra is 7.74; at c-kit, 6.58.

As to `COc1cc(Oc2ccnc3cc(OC)c(OC)cc23)ccc1NC(=O)NC1CCN(Cc2ccccc2)CC1` [Example 607, N-{4-[(6,7-Dimethoxy-4-quinolyl)oxy]-2-methoxyphenyl}-N′-[4-(N-benzyl)piperidinyl]urea], the pIC50 on PDGF-Ra was 7.54; at c-kit it was 6.26.

Take `COc1cc2nccc(Oc3ccc(NC(=O)NN4CCCCCC4)cc3)c2cc1OC` [Example 608, N-{4-[(6,7-Dimethoxy-4-quinolyl)oxy]phenyl}-N′-(1-homopiperidinyl)urea]: the pIC50 is above 8.00 at PDGF-Ra and 6.70 at c-kit.

Turning to `COc1cc2nccc(Oc3cc(C)c(NC(=O)NCCN4CCOCC4)cc3C)c2cc1OC` [Example 616, N-{4-[(6,7-Dimethoxy-4-quinolyl)oxy]-2,5-dimethylphenyl}-N′-(2-morpholinoethyl)urea], the values for the pIC50 at PDGF-Ra and at c-kit were 7.44 and 6.65, respectively.

In the case of `COc1cc2nccc(Oc3ccc(NC(=O)NCCN4CCOCC4)c(C)c3C)c2cc1OC` [Example 617, N-{4-[(6,7-Dimethoxy-4-quinolyl)oxy]-2,3-dimethylphenyl}-N′-(2-morpholinoethyl)urea], the pIC50 at PDGF-Ra is above 8.00; at c-kit, 6.76.

`COc1cc2nccc(Oc3ccc(NC(=O)NCCN4CCCC4)cc3)c2cc1OC` [Example 618, N-{4-[(6,7-Dimethoxy-4-quinolyl)oxy]phenyl}-N′-(2-tetrahydro-1H-1-pyrrolylethyl)urea]: the pIC50 at PDGF-Ra is above 8.00; at c-kit, 6.02.

One may read the pIC50 as the negative decadic logarithm of the IC50, by convention in mol/L. Usually inhibition stands for the drop in the measured response relative to a control, in per cent.
